Our source for the Ki and IC50 values is patent publication US20220125959A1, “PROSTATE-SPECIFIC MEMBRANE ANTIGEN (PSMA) INHIBITORS AS DIAGNOSTIC AND RADIONUCLIDE THERAPEUTIC AGENTS” (FIVE ELEVEN PHARMA INC., priority 2019, published 2022).

In assay [1] the target is T1, PSMA (Homo sapiens, UniProt Q04609). Set-up: expressed in transfected cells; host or cells: PC-3 PIP cells. As to conditions: ^131I labeled MIP-1095; read-out: PSMA binding affinity Ki; cited from earlier work.
Target sequence in this assay (Q04609 whole entry, species assumed): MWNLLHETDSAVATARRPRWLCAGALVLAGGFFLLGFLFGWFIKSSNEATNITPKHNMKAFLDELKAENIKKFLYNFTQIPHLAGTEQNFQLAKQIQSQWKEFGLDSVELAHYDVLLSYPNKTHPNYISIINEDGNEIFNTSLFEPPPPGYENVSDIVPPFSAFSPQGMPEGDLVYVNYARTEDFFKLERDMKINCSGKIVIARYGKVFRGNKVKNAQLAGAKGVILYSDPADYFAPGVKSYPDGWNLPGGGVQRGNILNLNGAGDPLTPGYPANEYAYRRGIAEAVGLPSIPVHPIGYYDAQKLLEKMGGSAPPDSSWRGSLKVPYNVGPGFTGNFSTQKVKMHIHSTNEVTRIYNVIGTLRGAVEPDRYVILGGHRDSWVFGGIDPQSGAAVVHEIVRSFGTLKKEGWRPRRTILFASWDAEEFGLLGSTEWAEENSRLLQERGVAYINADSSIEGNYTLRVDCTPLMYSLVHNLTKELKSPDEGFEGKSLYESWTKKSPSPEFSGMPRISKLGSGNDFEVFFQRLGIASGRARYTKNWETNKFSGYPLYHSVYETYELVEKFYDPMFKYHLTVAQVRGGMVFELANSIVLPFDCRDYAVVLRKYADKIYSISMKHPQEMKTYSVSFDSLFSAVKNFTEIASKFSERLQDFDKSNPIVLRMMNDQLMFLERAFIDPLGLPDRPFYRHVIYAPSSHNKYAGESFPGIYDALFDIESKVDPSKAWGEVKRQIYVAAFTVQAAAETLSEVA
Assay [2] concerns the target T1, PSMA. Nature of the assay: PSMA competitive binding, PC-3 PIP cells with [125I]MIP-1095. Set-up: expressed in transfected cells; host or cells: PC-3 PIP cells. To be noted: n = 3 (a: n = 2); read-out: IC50 *(PC-3 PIP cells and [125I]MIP-1095). The method, then: (§1) In vitro binding assays were carried out to determine the PSMA binding affinity of various compounds. By incubating PSMA positive cells either with: 1). LNCaP with 0.2 nM [^68Ga]PSMA-11 or [^125I]MIP-1095, as the ligand, in the presence of 10 different concentrations of competing ligands; non-specific binding was defined with 20 μM 2-PMPA (2-(phosphonomethyl)pentanedioic acid); or 2). PC-3 PIP cells with [^125I]MIP-1095 (0.18 nM diluted in PBS) in presence of different concentration of test compounds ([…] diluted in PBS containing 0.1% bovine serum albumin). Nonspecific binding (NSB) was defined with 2 μM the known PSMA inhibitor, PSMA-617. After incubation at 37° C. for 1 h, the bound and free fractions were separated by vacuum filtration through GF/B filters using a Brandel M-24R cell harvester. The filters were washed twice with cold Tris-HCl buffer (50 mM, pH=7.4), and the radioactivity on the filters was counted in a gamma counter (Wizard^2, Perkin-Elmer) with 50% efficiency. The nonspecific bound was less than 10% of the total bound. Data were analyzed using GraphPad Prism 6.0 with a nonlinear regression algorithm to obtain the half maximal inhibitory concentration (IC50).
(§2) The binding affinities to PSMA of the test compounds were measured by a competitive binding assay using either LNCap or PC-3 PIP cells suspension and the known radiotracers known to have high affinity and specificity to PSMA, [^68Ga]PSMA-11 or [^125I]MIP-1095. The IC50 values of four iodinated compounds, three DOTA, DOTAG and DOTA(GA)2 related compounds and two known PSMA inhibitors are shown in Table 1. Complexes of compound 4 and natural Ga and natural Lu were also tested. […] After labeling with radioisotope they are expected to bind to the tumor tissues over expressing PSMA binding sites.
Target sequence in this assay (Q04609 whole entry, species assumed): as above

Assay [3] concerns the target T1, PSMA. Description: PSMA competitive binding, LNCaP cells with [68Ga]PSMA-11. As to conditions: n = 3; read-out: IC50 (LNCaP human PCa cells and [68Ga]PSMA-11). Set-up: LNCaP with 0.2 nM; endogenous in cells; host or cells: LNCaP cells (suspension). The method, then:
as §1, §2
Target sequence in this assay (Q04609 whole entry): as the sequence (Q04609 whole entry, species assumed) above

In general, Ki refers to a measure of affinity in units of concentration, obtained from inhibition or displacement. By IC50 is commonly meant the point on the concentration scale where inhibition reaches its midpoint.

Consider `O=C(O)CC[C@H](NC(=O)N[C@@H](CCCCNC(=O)Nc1ccc(I)cc1)C(=O)O)C(=O)O` [MIP-1095], for which, on PSMA [1], the inhibitory constant (Ki) is 4.6 nM.

On to `O=C(O)CC[C@H](NC(=O)N[C@@H](CCCCNC(=O)[C@H](Cc1ccc2ccccc2c1)NC(=O)[C@H]1CC[C@H](CNC(=O)CN2CCN(CC(=O)O)CCN(CC(=O)O)CCN(CC(=O)O)CC2)CC1)C(=O)O)C(=O)O` [PSMA-617, 2-[3-(1-Carboxy-5-(3-naphthalen-2-yl-2-[(4-([2-(4,7,10-tris-carboxymethyl-1,4,7,10-tetraaza-cyclododec-1-yl)-acetylamino]-methyl)-cyclohexanecarbonyl)-amino]-Propionylamino)-pentyl)-ureido]-pentanedioic acid, reference compound], for which the IC50 came out at 10.9 ± 0.37 nM on PSMA [2] and 11.1 ± 0.8 nM at PSMA [3].
